In US20100056524A1, “Compound” (priority 2008, published 2010) one finds IC50 data, which are given here for 23 molecules.

Broadly, the IC50 is the concentration that inhibits the measured activity by half.

Counter-ions that a name gives are not always drawn.

The assay deals with T1, TBK1 (Homo sapiens, UniProt Q9UHD2).
T1 construct: All protein kinases were of human origin and encoded full length proteins, unless indicated otherwise; His6; made in house; host or cells: insect Sf21 cells
T1 sequence (Q9UHD2 1-729): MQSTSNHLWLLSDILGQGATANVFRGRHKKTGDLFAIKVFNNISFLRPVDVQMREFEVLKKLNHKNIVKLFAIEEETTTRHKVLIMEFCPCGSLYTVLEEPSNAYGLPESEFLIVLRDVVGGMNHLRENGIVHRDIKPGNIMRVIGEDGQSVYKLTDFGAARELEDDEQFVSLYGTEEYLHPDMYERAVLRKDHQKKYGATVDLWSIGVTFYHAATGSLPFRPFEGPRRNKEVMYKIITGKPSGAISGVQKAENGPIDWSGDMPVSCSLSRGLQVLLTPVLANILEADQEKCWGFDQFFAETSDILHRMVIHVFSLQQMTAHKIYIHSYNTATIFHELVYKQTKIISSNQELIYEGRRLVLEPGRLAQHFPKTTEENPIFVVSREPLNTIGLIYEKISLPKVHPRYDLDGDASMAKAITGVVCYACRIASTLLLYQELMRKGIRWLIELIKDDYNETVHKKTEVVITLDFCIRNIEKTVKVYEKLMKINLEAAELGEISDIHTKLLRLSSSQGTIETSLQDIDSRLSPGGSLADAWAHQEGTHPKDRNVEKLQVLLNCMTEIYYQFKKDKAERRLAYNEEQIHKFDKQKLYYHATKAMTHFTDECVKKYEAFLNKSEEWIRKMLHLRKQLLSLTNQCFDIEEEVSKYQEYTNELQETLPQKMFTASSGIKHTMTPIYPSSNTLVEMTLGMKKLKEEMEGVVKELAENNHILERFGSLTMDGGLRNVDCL
Briefly: TBK1 protein kinase assay ([γ-33P]ATP, P81 filterplates). The format is biochemical. The note with it: 50 μM ATP; read-out: Potency (TBK1 IC50 potency score). The text has this: All protein kinases were of human origin and encoded full length proteins, unless indicated otherwise. They were either expressed as glutathione S-transferase (GST) fusion proteins in Escherichia Coli or as hexahistidine (His6)-tagged proteins in insect Sf21 cells. GST fusion proteins were purified by affinity chromatography on glutathione-Sepharose, and His6-tagged proteins on nickel/nitriloacetate-agarose. The procedures for expressing some of the protein kinases used herein have been detailed previously.^8,9 The following sections outline the DNA vectors synthesised and the procedures used to express and purifying protein kinases that have not been reported previously.
The following kinases were expressed in Sf21 cells: Aurora B and Aurora C, extra-cellular signal-regulated kinase 8 (ERK8), microtubule affinity regulating kinase 3 (MARK3), protein kinase Bα[118-480][S473D], protein kinase Bβ (PKBβ[120-481][S474D], 3-phosphoinositide-dependent protein kinase-1 [52-556]
Assays were performed for 30 min using Multidrop Micro reagent dispensers (Thermo Electron Corporation, Waltham, Mass. 02454, USA) in a 96-well format. The concentration of magnesium acetate in the assays was 10 mM and the [γ-33P] ATP (800 cpm/pmol) was used at 5, 20 or 50 μM as indicated, in order to be at or below the Km for ATP for each enzyme. Protein kinases assayed at 5 μM ATP were: —ERK1, ERK8, PKBα, MARK3, Aurora C. Protein kinases assayed at 20 μM ATP were: —JNK1, PDK1, CHK1, CHK2, CDK2 and Aurora B. Protein kinases assayed at 50 μM ATP were: —MNK2, IKKepsilon and TBK1.
The assays were initiated with MgATP, stopped by addition of 5 μl of 0.5 M orthophosphoric acid and spotted on to P81 filterplates using a unifilter harvester (PerkinElmer, Boston, Mass. 02118, USA). The IC50 values of inhibitors were determined after carrying out assays at 10 different concentrations of each compound.
ERK1 and ERK8 were both assayed against myelin basic protein (MBP, 0.33 mg/ml). MARK3 was assayed against the peptide […] (300 μM), MNK2 against the eIF4E protein (0.5 mg/ml). PKBβ was assayed against the peptide […] (30 μM). TBK1 were assayed against ([…]) (300 μM). The substrates used for other protein kinases were described previously.^8,9
Unless stated otherwise, enzymes were diluted in 50 mM Tris/HCl pH 7.5, 0.1 mM EGTA, 1 mg/ml BSA, 0.1% (v/v) 2-mercaptoethanol and assayed in 50 mM Tris/HCl pH 7.5, 0.1 mM EGTA, 0.1% (v/v) 2-mercaptoethanol.
`Cc1nc2cc(Nc3ncc(C4CC4)c(NCCCNC(=O)c4cccs4)n3)ccc2s1` [Example 60, Thiophene-2-carboxylic acid {3-[5-cyclopropyl-2-(2-methyl-benzothiazol-5-ylamino)-pyrimidin-4-ylamino]-propyl}-amide]: the half-maximal inhibitory concentration (IC50) fell in the range of 100 to 1000 nM.

For `O=C(NCCCOc1nc(Nc2cccc(F)c2)ncc1C1CC1)C1CCC1` [Example 105], the IC50 lay in the range of 100 to 1000 nM.

Regarding `O=C(NCCCNc1nc(Nc2ccc3cnn(C4CC4)c3c2)ncc1C1CC1)C1CCC1` [Example 211, Cyclobutanecarboxylicacid{3-[5-cyclopropyl-2-(1-cyclopropyl-1H-indazol-6-ylamino)-pyrimidin-4-ylamino]-propyl}-amide], the IC50 is below 100 nM.

With `O=C(NCCCNc1nc(Nc2ccc(-c3cnco3)nc2)ncc1C1CC1)C1CCC1` [Example 185, Cyclobutanecarboxylic acid {3-[5-cyclopropyl-2-(6-oxazol-5-yl-pyridin-3-ylamino)-pyrimidin-4-ylamino]-propyl}-amide], the IC50 was below 100 nM.

Regarding `CN(C)C(=O)c1ccc(Nc2ncc(C3CC3)c(NCCCNC(=O)C3CCC3)n2)cc1` [Example 180, 4-{4-[3-(Cyclobutanecarbonyl-amino)-propylamino]-5-cyclopropyl-pyrimidin-2-ylamino}-N,N-dimethyl-benzamide], the IC50 is below 100 nM.

For `O=C(NCCCNc1nc(Nc2ccc(N3CCCCC3)nc2)ncc1C1CC1)C1CCC1` [Example 150, Cyclobutanecarboxylic acid {3-[5-cyclopropyl-2-(3,4,5,6-tetrahydro-2H-[1,2′]bipyridinyl-5′-ylamino)-pyrimidin-4-ylamino]-propyl}-amide], the IC50 is below 100 nM.

With `O=C(NCCc1c[nH]cn1)c1cccc(Nc2ncc(C3CC3)c(NCCCNC(=O)C3CCC3)n2)c1` [Example 74, 3-{4-[3-(Cyclobutanecarbonyl-amino)-propylamino]-5-cyclopropyl-pyrimidin-2-ylamino}-N-[2-(1H-imidazol-4-yl)-ethyl]-benzamide], the IC50 was below 100 nM.

In the case of `CC(=O)Nc1cccc(Nc2ncc(C3CC3)c(NCCCNC(=O)c3cccs3)n2)c1` [Example 51, Thiophene-2-carboxylic acid {3-[2-(3-acetylamino-phenylamino)-5-cyclopropyl-pyrimidin-4-ylamino]-propyl}-amide], the IC50 was below 100 nM.

As to `O=C(NCCCNc1nc(Nc2ccc(-c3cccnc3)nc2)ncc1C1CC1)C1CCC1` [Example 120, Cyclobutanecarboxylic acid {3-[2-([2,3′]bipyridinyl-5-ylamino)-5-cyclopropyl-pyrimidin-4-ylamino]-propyl}-amide], the IC50 was below 100 nM.

On to `Cc1oncc1C(=O)NCCCNc1nc(Nc2cccc(F)c2)ncc1C1CC1` [Example 8, 5-Methyl-isoxazole-4-carboxylic acid{3-[5-cyclopropyl-2-(3-fluoro-phenylamino)-pyrimidin-4-ylamino]-propyl}-amide trifluoroacetic acid salt], for which the IC50 was below 100 nM.

With `O=C(NCCCNc1nc(Nc2cccc(N3CCCC3=O)c2)ncc1C1CC1)C1CCC1` [Example 48, Cyclobutanecarboxylic acid (3-{5-cyclopropyl-2-[3-(2-oxo-pyrrolidin-1-yl)-phenylamino]-pyrimidin-4-ylamino}-propyl)-amide], the IC50 was below 100 nM.

In the case of `Cn1ccnc1C(=O)NCCCNc1nc(Nc2cccc(F)c2)ncc1C1CC1` [Example 18, 1-Methyl-1H-imidazole-2-carboxylic acid {3-[5-cyclopropyl-2-(3-fluoro-phenylamino)-pyrimidin-4-ylamino]-propyl}-amide], the IC50 is 1000 to 10000 nM.

Regarding `CN1Cc2cc(Nc3ncc(C4CC4)c(NCCCNC(=O)C4CCC4)n3)ccc2C1=O` [Example 167, Cyclobutanecarboxylic acid {3-[5-cyclopropyl-2-(2-methyl-1-oxo-2,3-dihydro-1H-isoindol-5-ylamino)-pyrimidin-4-ylamino]-propyl}-amide], the IC50 is below 100 nM.

Regarding `O=C(NCCCNc1nc(Nc2ccc3ncnn3c2)ncc1C1CC1)C1CCC1` [Example 189, Cyclobutanecarboxylic acid {3-[5-cyclopropyl-2-([1,2,4]triazolo[1,5-a]pyridin-6-ylamino)-pyrimidin-4-ylamino]-propyl}-amide], the IC50 is below 100 nM.

On to `O=C(NCCCNc1nc(Nc2cccc(F)c2)ncc1C1CC1)c1cncs1` [Example 11, Thiazole-5-carboxylic acid {3-[5-cyclopropyl-2-(3-fluoro-phenylamino)-pyrimidin-4-ylamino]-propyl}-amide], for which the IC50 was below 100 nM.

With `Cc1nc2ccc(Nc3ncc(C4CC4)c(NCCCNC(=O)C4CCC4)n3)cc2[nH]1` [Example 209, Cyclobutanecarboxylicacid{3-[5-cyclopropyl-2-(2-methyl-3H-benzimidazol-5-ylamino)-pyrimidin-4-ylamino]-propyl}-amide], the IC50 was below 100 nM.

On to `O=C(NCCCNc1nc(Nc2cc(F)cc(F)c2)ncc1C1CC1)C1CCC1` [Example 72, Cyclobutanecarboxylic acid {3-[5-cyclopropyl-2-(3,5-difluoro-phenylamino)-pyrimidin-4-ylamino]-propyl}-amide. Hydrochloride salt], for which the IC50 was below 100 nM.

For the molecule `O=C(NCCCNc1nc(Nc2cccnc2)ncc1C1CC1)C1CCCC1` [Example 66, Cyclopentanecarboxylic acid {3-[5-cyclopropyl-2-(pyridin-3-ylamino)-pyrimidin-4-ylamino]-propyl}-amide], the IC50 is below 100 nM.

As to `CN(C)CC(=O)NCCCNc1nc(Nc2cccc(F)c2)ncc1C1CC1` [Example 4, N-{3-[5-Cyclopropyl-2-(3-fluoro-phenylamino)-pyrimidin-4-ylamino]-propyl}-2-dimethylamino-acetamide trifluoroacetic acid salt], the IC50 is 100 to 1000 nM.

As for `O=C(NCCCNc1nc(Nc2cccc(-c3cncnc3)c2)ncc1C1CC1)C1CCC1` [Example 117, Cyclobutanecarboxylic acid {3-[5-cyclopropyl-2-(3-pyrimidin-5-yl-phenylamino)-pyrimidin-4-ylamino]-propyl}-amide], the IC50 is below 100 nM.

As to `O=C(NCCCNc1nc(Nc2ccc3c(cnn3CC3CC3)c2)ncc1C1CC1)C1CCC1` [Example 212, Cyclobutanecarboxylicacid{3-[5-cyclopropyl-2-(1-cyclopropylmethyl-1H-indazol-5-ylamino)-pyrimidin-4-ylamino]-propyl}-amide], the IC50 is below 100 nM.

On to `O=C(NCCCNc1nc(Nc2cccc(OC(F)(F)F)c2)ncc1C1CC1)c1cccs1` [Example 35, Thiophene-2-carboxylic acid {3-[5-cyclopropyl-2-(3-trifluoromethoxy-phenylamino)-pyrimidin-4-ylamino]-propyl}-amide trifluoroacetic acid salt], for which the IC50 lay in the range of 100 to 1000 nM.

In the case of `O=C(NCCCNc1nc(Nc2ccc(CCO)cc2)ncc1C1CC1)C1CCC1` [Example 177, Cyclobutanecarboxylic acid (3-{5-cyclopropyl-2-[4-(2-hydroxy-ethyl)-phenylamino]-pyrimidin-4-ylamino}-propyl)-amide], the IC50 is below 100 nM.
